Experimental data taken from paper PMC7339578, “Multiple circulating alkaloids and saponins from intravenous Kang-Ai injection inhibit human cytochrome P450 and UDP-glucuronosyltransferase isozymes: potential drug–drug interactions” (Chinese Medicine, 2020).

Assays:
[1] = molecular target: T1, CYP2B6 (Homo sapiens, UniProt P20813); assay: Inhibition of recombinant CYP2B6 (probe bupropion); type: in vitro ADME; settings: recombinant isozyme; mean ± SD of triplicate; unit not given (IC50 classes in μM); read-out: IC50 towards CYP2B6
T1 sequence (P20813 1-491): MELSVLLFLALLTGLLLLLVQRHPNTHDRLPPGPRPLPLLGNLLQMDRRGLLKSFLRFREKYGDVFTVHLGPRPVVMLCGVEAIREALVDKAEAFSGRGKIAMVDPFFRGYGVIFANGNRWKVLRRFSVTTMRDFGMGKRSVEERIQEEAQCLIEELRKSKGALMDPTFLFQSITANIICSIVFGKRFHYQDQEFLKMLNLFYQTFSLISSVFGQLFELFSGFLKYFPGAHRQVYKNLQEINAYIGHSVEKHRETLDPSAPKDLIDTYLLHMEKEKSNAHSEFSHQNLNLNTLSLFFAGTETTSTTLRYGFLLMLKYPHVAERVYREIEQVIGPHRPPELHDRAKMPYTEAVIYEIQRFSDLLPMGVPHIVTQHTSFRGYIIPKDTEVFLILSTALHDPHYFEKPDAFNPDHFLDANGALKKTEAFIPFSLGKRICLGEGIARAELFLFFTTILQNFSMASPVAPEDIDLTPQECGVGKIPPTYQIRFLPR
Experimental: (§1) In this study, phenacetin (100 μM), coumarin (100 μM), bupropion (100 μM), paclitaxel (60 μM), tolbutamide (200 μM), mephenytoin (100 μM), chlorzoxazone (200 μM) and nifedipine (40 μM) have been used as the probe substrates for CYP1A2, 2A6, 2B6, 2C8, 2C9, 2C19, 2E1 and 3A4, respectively.

[2] = molecular target: CYP2E1 (Homo sapiens, UniProt P05181); assay: Inhibition of recombinant CYP2E1 (probe chlorzoxazone)
CYP2E1, sequence (P05181 whole entry): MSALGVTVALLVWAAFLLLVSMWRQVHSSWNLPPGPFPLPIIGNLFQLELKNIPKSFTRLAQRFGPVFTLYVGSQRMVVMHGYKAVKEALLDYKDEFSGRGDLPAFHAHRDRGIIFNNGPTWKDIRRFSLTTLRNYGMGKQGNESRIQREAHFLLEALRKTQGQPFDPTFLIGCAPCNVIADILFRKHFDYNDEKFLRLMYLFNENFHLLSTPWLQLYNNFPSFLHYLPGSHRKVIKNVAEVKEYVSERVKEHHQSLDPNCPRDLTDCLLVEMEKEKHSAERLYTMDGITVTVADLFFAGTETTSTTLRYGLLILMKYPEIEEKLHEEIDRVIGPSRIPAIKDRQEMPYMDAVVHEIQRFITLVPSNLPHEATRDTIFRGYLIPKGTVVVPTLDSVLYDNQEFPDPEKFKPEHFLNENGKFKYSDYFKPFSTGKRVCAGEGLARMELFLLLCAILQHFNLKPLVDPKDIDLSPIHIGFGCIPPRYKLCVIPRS
Experimental: Phase I incubation system (100 μL) contained Tris–HCl buffer (50 mM, pH = 7.4), MgCl2 (5 mM), each CYP isozyme, specific substrates, circulating compounds and NADPH (1 mM) as prescribed previously. After incubation (37 °C, 60 min), the reaction was terminated by ice-cold acetonitrile (100 μL), following by centrifugation at 13,800g for 10 min. The supernatant (8 μL) was acquired for ultra-high-performance liquid chromatography (UHPLC) system (Waters, Manchester, UK) analysis.
After optimization of incubation conditions (Additional file 1: Fig. S1), the substrates were incubated with each CYP isozyme at different protein concentrations (0.05 mg/mL for CYP1A2 and 3A4; 0.1 mg/mL for CYP2A6, 2B6, 2C8, 2C9, 2C19 and 2E1) in the absence (control) and presence of different mixture or herbal compounds (Kang-Ai injection and samples that Kang-Ai injection was diluted 10 times; 1, 10, and 100 μM for matrine and oxymatrine; 0.1, 1, 10 and 100 μM for astragalosides and ginsenosides).
The half-inhibition concentration (IC50) values were determined by non-linear regression analysis. […] The inhibition mechanism towards corresponding CYP and UGT isoforms were further explored.
The inhibition constant (Ki) values were obtained by multiple concentrations of substrates in the absence or presence of multiple concentrations of herbal compounds as described previously. […] (1)–(3), respectively. The model with the smallest Akaike information criterion (AIC) and Schwartz information criterion (SC) values was considered as the best model, following the obtained appropriate Ki values. Model fitting and parameter estimation were performed using Graphpad Prism V5 software (SanDiego, CA).

[3] = Biliary (hepatobiliary) excretion in rats after a 30-min infusion of Kang-Ai injection; type: in vivo, Sprague–Dawley rats; settings: rat bile 0–12 h; Kang-Ai injection 6 mL/kg iv
Method in brief: (§2)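 Urine collected in metabolic cages at 0–4, 4–8, 8–12 h and bile at 0–3, 3–6, 6–9, 9–12 h after infusion start, weighed and frozen at −80 °C. Non-compartmental analysis; CLR and CLB as cumulative urinary or biliary amount divided by plasma AUC0-∞, fe-U and fe-B as cumulative amount/dose; mean ± SD (n = 3).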

[4] = molecular target: CYP2C19 (Homo sapiens, UniProt P33261); assay: Inhibition of recombinant CYP2C19 (probe mephenytoin); type: in vitro ADME; settings: recombinant isozyme; mean ± SD of triplicate; unit not given (IC50 classes in μM); read-out: IC50 towards CYP2C19
CYP2C19, sequence (P33261 whole entry): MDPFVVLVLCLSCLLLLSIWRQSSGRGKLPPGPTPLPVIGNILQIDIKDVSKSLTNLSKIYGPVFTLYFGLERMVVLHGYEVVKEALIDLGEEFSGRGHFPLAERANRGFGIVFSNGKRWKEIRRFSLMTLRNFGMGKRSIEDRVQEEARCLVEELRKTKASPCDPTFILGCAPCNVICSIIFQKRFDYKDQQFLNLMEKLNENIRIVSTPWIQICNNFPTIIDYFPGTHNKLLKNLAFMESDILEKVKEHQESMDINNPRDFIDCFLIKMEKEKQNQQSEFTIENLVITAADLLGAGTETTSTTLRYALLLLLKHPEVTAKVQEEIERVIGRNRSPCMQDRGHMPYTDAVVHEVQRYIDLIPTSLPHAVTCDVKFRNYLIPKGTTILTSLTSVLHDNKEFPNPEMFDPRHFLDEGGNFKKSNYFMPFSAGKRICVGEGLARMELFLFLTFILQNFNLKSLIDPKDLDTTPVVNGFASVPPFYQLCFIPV
Experimental: as §1

[5] = Stability tests of analytes in rat plasma QC samples; type: in vitro ADME; settings: rat plasma
Experimental: […] The dilution integrity was investigated by analyzing six replicate samples with each analyte, and each analyte were diluted 10-fold with blank rat matrix. Furthermore, the diluted samples were analyzed using freshly prepared calibration curve to calculate RE and RSD, which should be no more than ± 15% as criterion.

[6] = Urinary (renal) excretion in rats after a 30-min infusion of Kang-Ai injection; type: in vivo, Sprague–Dawley rats; settings: Kang-Ai injection 6 mL/kg iv
Method in brief: as §2

[7] = molecular target: CYP3A4 (Homo sapiens, UniProt P08684); assay: Inhibition of recombinant CYP3A4 (probe nifedipine); type: in vitro ADME; settings: recombinant isozyme; mean ± SD of triplicate; unit not given (IC50 classes in μM); read-out: IC50 towards CYP3A4
CYP3A4, sequence (P08684 whole entry): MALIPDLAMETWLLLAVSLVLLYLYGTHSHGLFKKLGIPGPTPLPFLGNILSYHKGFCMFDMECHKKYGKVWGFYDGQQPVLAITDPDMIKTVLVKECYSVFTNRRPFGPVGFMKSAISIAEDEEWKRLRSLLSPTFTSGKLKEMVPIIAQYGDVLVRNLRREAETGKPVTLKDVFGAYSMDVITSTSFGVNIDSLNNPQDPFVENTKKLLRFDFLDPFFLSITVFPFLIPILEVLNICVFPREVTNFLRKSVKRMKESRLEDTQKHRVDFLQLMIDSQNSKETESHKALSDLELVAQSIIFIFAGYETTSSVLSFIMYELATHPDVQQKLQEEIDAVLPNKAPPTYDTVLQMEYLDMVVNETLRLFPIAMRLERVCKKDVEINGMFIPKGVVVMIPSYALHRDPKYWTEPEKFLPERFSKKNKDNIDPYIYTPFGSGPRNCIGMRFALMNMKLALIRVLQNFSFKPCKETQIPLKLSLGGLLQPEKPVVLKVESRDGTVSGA
Experimental: as §1

## CC(C)=CCC[C@](C)(O[C@@H]1O[C@H](CO)[C@@H](O)[C@H](O)[C@H]1O)[C@H]1CC[C@]2(C)[C@@H]1[C@H](O)C[C@@H]1[C@@]3(C)CC[C@H](O)C(C)(C)[C@@H]3[C@@H](O[C@@H]3O[C@H](CO)[C@@H](O)[C@H](O)[C@H]3O[C@@H]3O[C@@H](C)[C@H](O)[C@@H](O)[C@H]3O)C[C@]12C [Compound C9, Ginsenoside Re]
[1]
  IC50: > 100 µM
[2]
  IC50: > 100 µM
[3]
  fe-B,0–12h (fraction of dose excreted into bile): 28.27 ± 4.16%
[4]
  IC50: > 100 µM
[5]; nominal conc. 40 nM
  At -80 °C for 48 h, Mean±SD: 37.07 ± 2.41 nM
  At -80 °C for 48 h, RE: -12.37%
  Extracted samples at 8 °C for 18 h, Mean±SD: 39.68 ± 3.10 nM
  Extracted samples at 8 °C for 18 h, RE: -8.46%
  Short-term stability at room temperature for 6 h, Mean±SD: 42.26 ± 4.77 nM
  Short-term stability at room temperature for 6 h, RE: 12.91%
  Three freeze-thaw cycles (-80 °C ↔ 23 °C), Mean±SD: 39.18 ± 1.53 nM
  Three freeze-thaw cycles (-80 °C ↔ 23 °C), RE: -5.32%
[5]; nominal conc. 200 nM
  At -80 °C for 48 h, Mean±SD: 181.77 ± 7.39 nM
  At -80 °C for 48 h, RE: -12.74%
  Extracted samples at 8 °C for 18 h, Mean±SD: 193.91 ± 26.18 nM
  Extracted samples at 8 °C for 18 h, RE: -12.50%
  Short-term stability at room temperature for 6 h, Mean±SD: 175.60 ± 2.61 nM
  Short-term stability at room temperature for 6 h, RE: -13.13%
  Three freeze-thaw cycles (-80 °C ↔ 23 °C), Mean±SD: 205.17 ± 19.51 nM
  Three freeze-thaw cycles (-80 °C ↔ 23 °C), RE: 11.83%
[5]; nominal conc. 800 nM
  At -80 °C for 48 h, Mean±SD: 836.79 ± 51.65 nM
  At -80 °C for 48 h, RE: 10.56%
  Extracted samples at 8 °C for 18 h, Mean±SD: 827.44 ± 80.86 nM
  Extracted samples at 8 °C for 18 h, RE: 12.75%
  Short-term stability at room temperature for 6 h, Mean±SD: 724.25 ± 14.79 nM
  Short-term stability at room temperature for 6 h, RE: -11.32%
  Three freeze-thaw cycles (-80 °C ↔ 23 °C), Mean±SD: 818.48 ± 84.93 nM
  Three freeze-thaw cycles (-80 °C ↔ 23 °C), RE: 12.80%
[6]; male, Sprague-Dawley, urine and plasma, rat, read-out: CLR (renal excretory clearance) (converted)
  CL renal: 0.767 mL/min
[6]; rat urine 0–12 h
  fe-U,0–12h (fraction of dose excreted into urine): 29.54 ± 6.03%
[6]; rat urine + bile, 0–12 h
  fraction of dose excreted unchanged via renal plus hepatobiliary excretion (sum of fe-U and fe-B): ~60%
[7]
  IC50: > 100 µM
